Source: patent US10744119B1, “Inhibitors of the malarial GST” (University of Puerto Rico, priority 2014, dated 2020)
Where two headings read alike, the source gives them in different places.

Legend:
[1] = test system: P. berghei blood stages; assay: Plasmodium berghei in vitro drug luminescence (ITDL) assay; assay type: cell-based; conditions: read-out: EC50, growth inhibition of P. berghei blood stages
Protocol: The compounds were received as 10 mM stocks dissolved in 100% DMSO. These stocks were stored at −20° C. The DMSO stock compounds were diluted in complete culture medium (RPMI1640 medium supplemented with 20% FBS from Gibco® heat-inactivated and Neomycin stock solution of 10,000 IU/mL from Sigma-Aldrich®) for use in the Plasmodium berghei in vitro drug luminescence assay. For initial testing, the compounds were used at the following concentration: 0.01 μM, 0.1 μM, 1 μM and 10 μM; in triplicate point to determine the inhibition curve for each compound.
This assay measures the in vitro development of P. berghei ring stage into mature schizonts in the presence of inhibitors/drugs. The Swiss-CD1 female mice were infected with the GFP-luc parasite line. The GFP-luc parasite line allows determination of the luciferase activity in the cultured mature schizonts, which is directly proportional to the number of schizonts. When the parasitemia reaches 1-3%, the RBCs were collected from the infected mice and used to perform the assay. The susceptibility of blood stages parasites was determined in the presence of standard GST inhibitors and the TCAMS compounds identified from the VLS. […] The standard GST inhibitors were weighed and dissolved in 100% DMSO to prepare the stock solution. Dilutions of the standard GST inhibitors were freshly prepared in complete culture medium (RPMI1640 medium supplemented with 20% FBS from Gibco® heat-inactivated and Neomycin stock solution of 10,000 IU/mL from Sigma-Aldrich®) for each assay. The dilutions of the inhibitors were added to the wells in triplicates, 50 μL per well. Chloroquine diphosphate salt from Sigma-Aldrich® was used as a control (at a concentration of 100 nM) for complete inhibition of blood stage development. Further, infected blood was collected from one mouse by cardiac puncture under anesthesia early in the morning (between 9:00-10:[…]). The blood was added to a 50 mL tube containing 5 mL complete culture medium supplemented with 300 μL heparin stock solution (25,000 U/mL). The blood was centrifuged for 8 min at 450×g and the supernatant was removed. The blood was resuspended in a complete culture medium comprising a concentration of 2% (v/v). In the next step, 50 μL of the blood suspension was added in each well containing the inhibitors dilutions. The 96-well black culture plates containing the infected blood solution were placed into a candle jar. The candle jar was carefully flushed with a gas mixture of 5% CO2, 5% O2, 90% N2 using a 0.22 μm filter unit connected to the gas hose for 2 minutes. The lid was tightly closed immediately after gassing. The infected blood suspension was incubated at 37° C. with continuous agitation (enough to keep the cells suspended) for 24 hours allowing the ring stages to develop into the mature schizonts. After the culture period, the schizonts were evaluated by microscopic examination of Diff Quick-stained thin blood smears. The 96-well plate was centrifuged at 1,000×g for 5 minutes. The supernatant was removed using a syringe needle on those sides of the wells without red blood cell after spinning. The luciferase activity was measured in cultured mature schizonts using the Luciferase Assay System Kit from Promega (Cat. No. E1500). The RBCs were lysed by adding 50 μL of 1× cell culture lysis reagent into each well. The plate was shaken for 5 minutes to assure complete lysis. Afterward, 50 μL of the luciferase assay reagent was added. The luminescence was measured using the SpectraMax® M3 Microplate Reader (Molecular Devices). […] The data was analyzed and used to generate standard in vitro inhibition curves, and EC50 values of each compound were calculated. Preliminary data analyses were performed using Microsoft Excel and the effective concentration (50% of the maximal inhibition; EC50 values) were calculated using GraphPad Prism software (Graph-Pad software, Inc., US, Mac Version 6).

[2] = test system: P. berghei blood stages; conditions: read-out: EC50, published results; published value; cited from earlier work
[3] = molecular target: P. berghei GST (pbGST) (Plasmodium berghei, UniProt A0A509AJX5); assay: Inhibition of GST activity (CDNB/GSH, 340 nm) in P. berghei protein extracts; assay type: biochemical; conditions: for inhibitory activity on pbGST: 1, 10 and 50 μM, duplicate (n=2), more marked effect at 50 μM
Protocol: Glutathione S-transferase Activity in Blood Stage Parasites: The parasite extracts were prepared as the method described in the Protein for Enzymatic Activity. The enzymatic activity was determined spectroscopically using the chromogenic substrate 1-chloro-2,4-dinitrobenzene (CDNB) from Sigma-Aldrich®. The GST activity was assayed at 25° C. in P. berghei protein extracts by monitoring the increase in absorbance at 340 nm on the basis of the extinction coefficient for the product S-(2,4-dinitrophenyl) glutathione (ε340 nm=9.6 mM^−1 cm^−1). The absorbance was measured in a 96-well plate (UV flat bottom Microtiter®, from Thermo Scientific) using the SpectraMax® M3 Microplate Reader (Molecular Devices). The parasite extract (0.65 mg/mL) and 1 mM CDNB were added to a 100 mM potassium phosphate (pH 6.5) buffer. The reaction was started by adding 1 mM GSH. To detect any residual GST activity associated with the parasite extract, blank reactions as controls (no GSH) were included. The Enzyme activity is reported as units (micromole of GSH/min)/mg of protein. This assay was standardized using the human placenta GST from Sigma-Aldrich® (Cat No. G8642) and used as positive control.
The compounds stock solutions were prepared in 100% DMSO. […] The half maximal inhibitory concentration (IC50) values were calculated using the non-linear regression function for sigmoidal dose-response (variable slope). Inhibition curves of pbGST was done in two independent experiments with one replicate each (n=2) whereas the inhibition curves of hGST was determined in three independent experiments in triplicate (n=9). […] GraphPad Prism software (Graph-Pad software, Inc., US, Mac Version 6) was used to make the graph and to perform the statistical analyses.
The GSK TCAMS compounds dilutions were prepared in DMSO and the final concentration of DMSO in the assay was 0.5%. Inhibition of pbGST by the GSK TCAMS compounds were determined by adding variable concentration of compounds (1, 10 and 50 μM) with a fixed P. berghei protein extracts concentration (0.65 mg/mL) in a total volume of 200 μL containing 1 mM CDNB and 100 mM potassium phosphate buffer (pH 6.5) at 25° C. The reaction was started by adding 1 mM GSH and activity was measured spectroscopically at 340 nm absorbance. The data obtained by varying compound concentration was analyzed using a column bar graph. Inhibition of pbGST by the GSK TCAMS compounds was done in duplicate. One GSK TCAMS compound, TCMDC-124132, was analyzed against the hGST in two independent experiments in triplicate (n=6). A statistical analysis was done using the GraphPad Prism software (Graph-Pad software, Inc., US, Mac Version 6). […]

[4] = molecular target: T1, human placenta GST (hGST) (Homo sapiens, UniProt P09211); assay: Inhibition of GST activity (CDNB/GSH, 340 nm) of human placenta GST; assay type: biochemical
T1 construct: the human placenta GST from Sigma-Aldrich® (Cat No. G8642); purchased Sigma-Aldrich G8642; host or cells: human placenta (tissue-derived)
Protocol: Glutathione S-transferase Activity in Blood Stage Parasites: The parasite extracts were prepared as the method described in the Protein for Enzymatic Activity. The enzymatic activity was determined spectroscopically using the chromogenic substrate 1-chloro-2,4-dinitrobenzene (CDNB) from Sigma-Aldrich®. The GST activity was assayed at 25° C. in P. berghei protein extracts by monitoring the increase in absorbance at 340 nm on the basis of the extinction coefficient for the product S-(2,4-dinitrophenyl) glutathione (ε340 nm=9.6 mM^−1 cm^−1). The absorbance was measured in a 96-well plate (UV flat bottom Microtiter®, from Thermo Scientific) using the SpectraMax® M3 Microplate Reader (Molecular Devices). […]
The compounds stock solutions were prepared in 100% DMSO. […] The half maximal inhibitory concentration (IC50) values were calculated using the non-linear regression function for sigmoidal dose-response (variable slope). Inhibition curves of pbGST was done in two independent experiments with one replicate each (n=2) whereas the inhibition curves of hGST was determined in three independent experiments in triplicate (n=9). […]
The GSK TCAMS compounds dilutions were prepared in DMSO and the final concentration of DMSO in the assay was 0.5%. […] The reaction was started by adding 1 mM GSH and activity was measured spectroscopically at 340 nm absorbance. […]

[5] = ring stage to mature schizont development, 24 hours, luciferase readout, three independent experiments

Chain of P. berghei GST (pbGST) (A0A509AJX5 entry or part of it): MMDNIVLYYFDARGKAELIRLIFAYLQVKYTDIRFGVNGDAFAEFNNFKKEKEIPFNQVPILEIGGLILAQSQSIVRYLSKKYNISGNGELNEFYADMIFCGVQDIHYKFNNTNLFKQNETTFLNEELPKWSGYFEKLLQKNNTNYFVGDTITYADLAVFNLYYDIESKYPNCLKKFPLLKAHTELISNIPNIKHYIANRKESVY
T1 sequence (P09211 2-210 limits assumed): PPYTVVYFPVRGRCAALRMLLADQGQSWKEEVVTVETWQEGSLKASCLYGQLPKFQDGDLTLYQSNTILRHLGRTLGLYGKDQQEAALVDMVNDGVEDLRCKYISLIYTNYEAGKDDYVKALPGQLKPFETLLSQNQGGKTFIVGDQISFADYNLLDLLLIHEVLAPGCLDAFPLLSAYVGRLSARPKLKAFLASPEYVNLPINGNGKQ

SMILES | EC50 [1, 5] [nM] | inhibitory activity on pbGST [3] | other results
C=C(CC)C(=O)c1ccc(OCC(=O)O)c(Cl)c1Cl [ethacrynic acid, reference compound] |  |  | EC50 ([1]; Plasmodium berghei, ring stage to mature schizont development, 24 hours, luciferase readout, three independent experiments): 14700 nM
Oc1ccc(CCNc2nc(NCc3ccccc3-c3ccc(C(F)(F)F)cc3)nc(N3CCNCC3)n2)cc1 [Compound 12] | 3030 |  | 
CCN(CC)CCCC(C)Nc1ccnc2cc(Cl)ccc12 (centres unmarked) [Chloroquine] |  |  | EC50 [2]: 20 nM
O=C1Nc2cccc3c2C1(CCCCN1CCC(c2cc4ccncc4[nH]2)CC1)CCC3 (centres unmarked) [TCMDC-141151/TCMDC-141221] | 1040 | No inhibitory activity | 
COc1ccc2nccc([C@@H](O)CN3CCC(NC(=O)c4cc5c(F)cc(F)cc5[nH]4)CC3)c2n1 [Compound 6] | 1480 | No inhibitory activity | 
CCCCCCSC[C@H](NC(=O)CC[C@H](N)C(=O)O)C(=O)NCC(=O)O [S-hexylglutathione, reference compound] |  |  | EC50 ([1]; Plasmodium berghei, 24 h): 6860 nM; inhibition at 50 µM ([3]; 50 μM compound): 50%; inhibition at 50 µM ([4]; 50 μM compound): 50%
COc1cc(/C=C/C(=O)CC(=O)/C=C/c2ccc(O)c(OC)c2)ccc1O [curcumin, reference compound] |  |  | EC50 ([1]; Plasmodium berghei, 24 h): 15000 nM
c1ccc2[nH]c(CN(Cc3nc4ccccc4[nH]3)Cc3nc4ccccc4[nH]3)nc2c1 [Compound 8] | 1150 | tendency of inhibition | inhibitory activity on human placenta GST ([4]; at 50 μM and 100 μM, statistical difference at 100 μM, n=6): tendency of inhibition
